Experimental data published in US6784153B1, “Methods of homing molecules to lung using membrane dipeptidase” (The Burnham Institute, priority 1998, dated 2004).

Key:
Set-up in all cases: species or system mice
skin = assay: in vivo homing of phage displaying peptides to skin
Protocol: For in vivo panning of skin, two month old BALB/c nude mice were used to avoid contamination by hair. The mice were injected intravenously with phage as described above and, after perfusion through the heart, the skin was removed in large sections and placed on an ice cold plate with the hypodermis facing up. The skin was scraped with a scalpel to remove mostly hypodermis, which was then processed for phage recovery as described below.
(§1) Approximately 250 to 300 individual bacterial colonies containing phage recovered from the various organs or tissues were grown for 16 hr in 5 ml NZY/tet. In some experiments, approximately 1000 individual bacteria containing phage were picked and the phage were amplified in 2 ml of NZY/tet or the entire plate containing phage was scraped, pooled and grown in bulk and processed for injection. Where phage were cultured separately, the cultures were pooled and the phage were injected into mice or rats as described above for a second round of in vivo panning. In some experiments, a third or fourth round of panning was performed. Phage DNA was purified from individual bacterial colonies obtained and the DNA sequences encoding the peptides expressed by selected phage were determined (see Koivunen et al., supra, 1994b).
in After two or three rounds of in vivo panning of mice injected with a cyclic CX3CX3CX3C (SEQ ID NO: 25) phage display library, the peptide sequence CVALCREACGEGC (SEQ ID NO: 3), which appeared repeatedly in skin, was identified (Table 1). To determine the specificity of skin homing of the sequence CVALCREACGEGC (SEQ ID NO: 3), phage displaying the peptide was amplified individually, diluted to the same input titer and administered to mice. Following administration, control kidney and brain organ were removed and the number of TU of phage in skin, kidney and brain was determined.
Peptides that were identified more than one time during screening are indicated by an asterisk. For example, 14% of recovered CX3CX3CX3C (SEQ ID NO: 25) phage that homed to head skin had the sequence CVDVCCDGCPVCC (SEQ ID NO: 437). Phage having the sequence RVPLSGDVEH (SEQ ID NO: 438), LRVMSFTSGQ (SEQ ID NO: 439), or RFSVGSLFGS (SEQ ID NO: 440) each constituted 14% of recovered CX10C (SEQ ID NO: 30) phage that homed to head skin.

ovary = assay: in vivo panning of X7 library, ovary; settings: for ovary/brain enrichment ratio: OVARY section, ovary as compared to brain; for % OF MOTIF AMONG ALL CLONES: OVARY, of 40 clones sequenced; for enrichment in ovary as compared to brain: mouse, in vivo
Protocol: (§2) Following various in vivo panning screens, hundreds of thousands to millions of phage expressing homing peptides were recovered from the respective organ or tissue. Generally, the phage collected from a round of in vivo panning were plated on agar, about 250 to 300 clones were selected, grown in 5 ml cultures, then pooled and readministered for a subsequent round of in vivo panning (“regular method”). However, in some experiments, 1000 clones were selected, grown in 2 ml cultures, then pooled and administered for a subsequent round of screening; or the entire agar plate was scraped and all of the phage were cultured together and administered for a subsequent round of screening. The peptide inserts of various isolated phage were determined such that, of the millions of phage that homed, only a small number of sequences were identified.
Also provided are ovary homing peptides such as RVGLVAR (SEQ ID NO: 11) and EVRSRLS (SEQ ID NO: 10), which were identified by injection of an X7 (SEQ ID NO: 29) library into mice (Table 8). The peptides were isolated by the regular method.
(§3) Organ samples were washed 3 times with ice cold DMEM-PI containing 1% bovine serum albumin (BSA), then directly incubated with 1 ml K91-kan bacteria for 1 hr. Ten ml NZY medium containing 0.2 μg/ml tetracycline (NZY/tet) was added to the bacterial culture, the mixture was incubated in a 37° C. shaker for 1 hr, then 200 μl aliquots were plated in agar plates containing 40 μg/ml tetracycline (tet/agar).
as §1

lung = assay: in vivo homing of phage displaying peptides to lung; settings: for % OF MOTIF AMONG ALL CLONES: LUNG; for LUNG/BRAIN RATIO: LUNG section; for enriched in lung over unselected phage: individually amplified phage, FIG. 2; for enrichment in lung as compared to unselected phage: mouse, in vivo
Protocol: For lung and pancreas, a mixture of phage libraries containing 10^10 TU was diluted in 200 μl DMEM and injected into the tail vein of anesthetized BALB/c mice (2 month old; Harlan Sprague Dawley; San Diego Calif.); AVERTIN (0.017 ml/g) was used as anesthetic (Pasqualini and Ruoslahti, supra, 1996). After 1-4 minutes, mice were snap frozen in liquid nitrogen or, after about 5 minutes of phage circulation, the mice were perfused through the heart with 5-10 ml of DMEM (SIGMA; St. Louis Mo.). To recover the phage, the organs from the perfused mice or partially thawed organs from snap frozen mice were collected and weighed, then were homogenized in 1 ml DMEM-PI (DMEM containing protease inhibitors (PI); phenylmethyl sulfonyl fluoride (PMSF; 1 mM), aprotinin (20 μg/ml), leupeptin (1 μg/ml)).
as §3, §1
After two or three rounds of in vivo panning of mice injected with a cyclic CX3CX3CX3C (SEQ ID NO: 25) or a cyclic CX6C (SEQ ID NO: 26) phage display library, four peptides that homed to lung were identified.
To determine the specificity of lung homing of the individual peptides identified, phage displaying the peptides were amplified individually, diluted to the same input titer and administered to mice. Following administration, control kidney and brain organ was removed and the number of TU of phage in lung, kidney and brain was determined. The results shown in FIG. 2 reveal that 10× and 35× more phage having the peptide sequence CGFECVRQCPERC (SEQ ID NO: 1; GFE-1) bound to lung than to kidney and brain, respectively. […] The lung homing peptides CGFECVRQCPERC (SEQ ID NO: 1; GFE-1), CGFELETC (SEQ ID NO: 2; GFE-2), CTLRDRNC (SEQ ID NO: 15) and CIGEVEVC (SEQ ID NO: 16) are enriched in lung at 35×, 9×, 6× and 5×, respectively, over unselected phage (see FIG. 2).

gut = assay: in vivo panning of X7 library, gut; settings: for % OF MOTIF AMONG ALL CLONES: GUT, of 40 clones sequenced; for gut/brain enrichment ratio: GUT section, gut as compared to brain
Protocol: as §2
The invention also provides gut homing peptides such as YSGKWGK (SEQ ID NO: 9) and YSGKWGW (SEQ ID NO: 156), which were identified by injection of an X7 (SEQ ID NO: 29) library into mice (Tables 1 and 4) and differ only in the last amino acid position. The peptides were isolated by the regular method. The gut homing peptide YSGKWGK (SEQ ID NO: 9) was present in 22% of 40 clones sequenced and was enriched 30-fold in gut as compared to brain (Table 1). In addition, gut homing peptides such as QVRRVPE (SEQ ID NO: 155) and VRRGSPQ (SEQ ID NO: 164), which share a VRR motif, were identified, as were the peptides VRRGSPQ (SEQ ID NO: 164), GGRGSWE (SEQ ID NO: 167) and FRVRGSP (SEQ ID NO: 169), which share an RGS motif.
as §3, §1

prostate = assay: in vivo panning of X7 library, prostate; settings: for % OF MOTIF AMONG ALL CLONES: PROSTATE; for prostate/brain homing ratio: PROSTATE section, prostate as compared to brain; for enrichment in homing to prostate as compared to brain: mouse, in vivo
Protocol: as §2
The invention also provides prostate homing peptides such as SMSIARL (SEQ ID NO: 21) and VSFLEYR (SEQ ID NO: 22), which were identified by injection of an X7 (SEQ ID NO: 29) library into mice (Table 7). The peptides were isolated by the regular method.
as §3, §1

## CSSGCSKNCLEMC [peptide from phage recovered from skin]
skin; SKIN section
  skin/brain phage ratio: 2

## EVRSRLS [peptide from phage recovered from ovary]
ovary
  ovary/brain enrichment ratio: 3
  % OF MOTIF AMONG ALL CLONES: 22%
  enrichment in ovary as compared to brain: 3 fold

## CKWSRLHSC [peptide from phage recovered from lung]
lung
  % OF MOTIF AMONG ALL CLONES: 11%
  LUNG/BRAIN RATIO: 3

## RVPLSGDVEH [peptide from phage recovered from skin]
skin; head skin
  % of recovered CX10C phage that homed to head skin: 14%

## GISALVLS
gut
  % OF MOTIF AMONG ALL CLONES: 11%

## CIGEVEVC [peptide from phage recovered from lung]
lung
  % OF MOTIF AMONG ALL CLONES: 5%
  LUNG/BRAIN RATIO: 6
  enriched in lung over unselected phage: 5 ×
  enrichment in lung as compared to unselected phage: 6 fold

## CRPWHNQAHTEC [peptide from phage recovered from lung]
lung
  % OF MOTIF AMONG ALL CLONES: 14%
  LUNG/BRAIN RATIO: 5

## CVDVCCDGCPVCC [peptide from phage recovered from skin]
skin; head skin
  % of recovered CX3CX3CX3C phage that homed to head skin: 14%

## RGRWLAL [peptide from phage recovered from prostate]
prostate
  % OF MOTIF AMONG ALL CLONES: 6%

## CERVVGSSC [peptide from phage recovered from lung]
lung
  % OF MOTIF AMONG ALL CLONES: 9%
  LUNG/BRAIN RATIO: 4

## CLAKENVVC [peptide from phage recovered from lung]
lung
  % OF MOTIF AMONG ALL CLONES: 13%
  LUNG/BRAIN RATIO: 2

## CWRGDRKIC [peptide from phage recovered from lung]
lung
  % OF MOTIF AMONG ALL CLONES: 8%
  LUNG/BRAIN RATIO: 2

## SMSIARL [peptide from phage recovered from prostate]
prostate
  % OF MOTIF AMONG ALL CLONES: 6%
  prostate/brain homing ratio: 34
  enrichment in homing to prostate as compared to brain: 34 fold

## CTLRDRNC [lung homing peptide]
lung
  % OF MOTIF AMONG ALL CLONES: 10%
  LUNG/BRAIN RATIO: 8
  enriched in lung over unselected phage: 6 ×
  enrichment in lung as compared to unselected phage: 8 fold

## RFSVGSLFGS [peptide from phage recovered from skin]
skin; head skin
  % of recovered CX10C phage that homed to head skin: 14%

## CLRPYLNC [peptide from phage recovered from lung]
lung
  % OF MOTIF AMONG ALL CLONES: 10%
  LUNG/BRAIN RATIO: 6

## SRRQPLS [peptide from phage recovered from gut]
gut
  gut/brain enrichment ratio: 2
  % OF MOTIF AMONG ALL CLONES: 11%

## CGATCEMQCPSGC [peptide from phage recovered from skin]
skin; tail skin
  % of recovered CX3CX3CX3C phage, homing to tail skin: 12%

## CTVNEAYKTRMC [peptide from phage recovered from lung]
lung
  % OF MOTIF AMONG ALL CLONES: 22%
  LUNG/BRAIN RATIO: 3

## LRVMSFTSGQ [peptide from phage recovered from skin]
skin; head skin
  % of recovered CX10C phage that homed to head skin: 14%

## YSGKWGK [gut homing peptide]
gut
  gut/brain enrichment ratio: 30
  % OF MOTIF AMONG ALL CLONES: 22%
gut; mouse, in vivo
  enriched in gut as compared to brain: 30 fold

## MSPQLAT [peptide from phage recovered from gut]
gut
  % OF MOTIF AMONG ALL CLONES: 11%

## RVGLVAR [peptide from phage recovered from ovary]
ovary
  ovary/brain enrichment ratio: 5
  % OF MOTIF AMONG ALL CLONES: 22%
  enrichment in ovary as compared to brain: 5 fold

## CRLRSYGTLSLC [peptide from phage recovered from lung]
lung
  % OF MOTIF AMONG ALL CLONES: 5%
  LUNG/BRAIN RATIO: 0.4

## VSFLEYR [peptide from phage recovered from prostate]
prostate
  % OF MOTIF AMONG ALL CLONES: 6%
  prostate/brain homing ratio: 17
  enrichment in homing to prostate as compared to brain: 17 fold

## CGKRYRNC
lung
  % OF MOTIF AMONG ALL CLONES: 5%
  LUNG/BRAIN RATIO: 5
